US20180303874A1, “Compositions and Methods for the Prevention of Microbial Infections” (LANKENAU INSTITUTE FOR MEDICAL RESEARCH, priority 2011, published 2018)

Experiments:
[1] = test system: HSV; conditions: co-incubated; cited from earlier work
[2] = test system: claudin-2; experiment: Western blot analysis of tight junctional protein claudin-2 in Caco-2 cells; format: cell-based, human; conditions: 50 or 100 μM zinc, one week, vs control
Description: (§1) Human gastrointestinal epithelial cells were allowed to grow to maximal density and re-fed with culture media at different zinc concentrations for pre-determined time points (0, 3, 6, 24 or 48 hours, or 7 days). Flasks were washed two times each with ice cold saline, then flash-frozen in an ethanol-dry ice bath, and stored at −80° C. until fractionation. At that time, flasks were quick-thawed and 2 ml of 4° C. Buffer A (20 mM Tris-HCl, pH 7.5, 0.25 M sucrose, 10 mM EGTA, 2 mM EDTA) with protease and phosphatase inhibitors (final concentrations: 0.8 μM aprotinin, 20 μM leupeptin, 50 μM bestatin, 1 mM AEBSF, 10 μM pepstatin) (Calbiochem) was added to each, cells were scraped into the buffer, the suspension mechanically disrupted and then sonicated for 60 seconds on ice and transferred to an ultracentrifuge tube. Tubes were centrifuged in a chilled Beckman 50TI rotor at 39,000 rpm for one hour at 4° C. […] The supernatant from this final spin was the “membrane fraction.” Total protein was measured using the BioRad DC™ Protein Assay Kit.
(§2) Samples of these fractions were analyzed by polyacrylamide gel electrophoresis using a Novex XCell SureLock™ Mini-Cell apparatus and a 4-20% gradient Novex Tris-Glycine, pre-cast, 10-well, 1.5 mm thick gel (Invitrogen). […]
(§3) Films were analyzed for protein expression level by measuring optical density units with a Personal Densitometer™ SI (Molecular Dynamics).

[3] = test system: claudin-7; experiment: Western blot analysis of tight junctional protein claudin-7 in Caco-2 cells; format: cell-based, human; conditions: 50 or 100 μM zinc, one week, vs control
Description: as §1, §2, §3

[4] = test system: Caco-2 cell sheets; experiment: Transepithelial electrophysiology of Caco-2 cell sheets; format: cell-based, human; conditions: vs control
Description: Cells were seeded at the density of 5×10^5 onto sterile Millipore Millicell polycarbonate (PCF) permeable supports (pore size 0.4 μm with a diameter of 30 mm) on Day 0. Cells were allowed to grow for 21-24 days prior to experiments (Hubatsch et al. (2007) Nat. Protoc., 2:2111-9). Three or four Millicell PCF units (2 ml/unit) were placed in a 100 mm sterile petri dish (15 ml/dish). Cells were fed bilaterally 3 times per week with control medium until at least Day 14 and switched to different zinc-supplemented media (Ctrl, 50 or 100 μM elemental zinc) for another week. […]
On the day of experiment, cells were re-fed in fresh culture medium and allowed to incubate at 37° C. for 2 hr prior to the actual experiment. Transepithelial voltage and transepithelial electrical resistance were measured as previously described (Skrovanek et al. (2007) Am. J. Physiol. Regul. Integr. Comp. Physiol., 293:R1046-55). In brief, using silver/silver chloride electrodes in series with 1M NaCl agar bridges, a 40 microamp externally applied current pulse was delivered across the cell layer and the resultant change in the voltage across the cell layer was measured using calomel electrodes in series with 1M NaCl/agar bridges and a Keithley® 197A auto-ranging digital multimeter. […]

| Compound | inactivation of HSV [1] | also measured |
| --- | --- | --- |
| CC(=O)[O-].CC(=O)[O-].[Zn+2] [zinc acetate] | directly inactivate | – |
| CC(O)C(=O)[O-].CC(O)C(=O)[O-].[Zn+2] (centres unmarked) [zinc lactate] | directly inactivate | – |
| zinc gluconate | directly inactivate | – |
| [Zn] [zinc] | – | expression of claudin-2 [2]: significantly reduced; expression of claudin-7 [3]: reduction, albeit to a lesser extent than claudin-2; short circuit current ([4]; 50 or 100 μM zinc, one week): comparable short circuit currents; transepithelial electrical resistance ([4]; one-week zinc supplementation (50 or 100 μM)): significant increase |
| O=S(=O)([O-])[O-].[Zn+2] [zinc sulfate] | directly inactivate | – |
